Tested on: Staphylococcus aureus
Test: In vitro antimicrobial activity against Staphylococcus aureus X400 strain
Type: functional

| SMILES | MIC [µg/mL] |
| --- | --- |
| Nc1nc(/C(=N\OCCF)C(=O)N[C@@H]2C(=O)N3C(C(=O)[O-])=C(Sc4nc(-c5cccnc5)cs4)CC[C@H]23)cs1.[Na+] | 32 |
| Nc1nc(/C(=N\OCCF)C(=O)N[C@@H]2C(=O)N3C(C(=O)[O-])=C(Sc4nc5cccnc5s4)CC[C@H]23)cs1.[Na+] | 16 |
| Nc1nc(/C(=N\OCCF)C(=O)N[C@@H]2C(=O)N3C(C(=O)[O-])=C(Sc4nc5ccccc5s4)CC[C@H]23)cs1.[Na+] | 4 |
| Nc1nc(/C(=N\OCCF)C(=O)N[C@@H]2C(=O)N3C(C(=O)[O-])=C(Sc4nc5ccccc5[nH]4)CC[C@H]23)cs1.[Na+] | 128 |
| Nc1nc(/C(=N\OCCF)C(=O)N[C@@H]2C(=O)N3C(C(=O)[O-])=C(Sc4ccccc4)CC[C@H]23)cs1.[Na+] | 128 |

Tested on: Klebsiella
Test: In vitro antimicrobial activity against Klebsiella X26 strain
Type: functional

| SMILES | MIC [µg/mL] |
| --- | --- |
| Nc1nc(/C(=N\OCCF)C(=O)N[C@@H]2C(=O)N3C(C(=O)[O-])=C(Sc4nc(-c5cccnc5)cs4)CC[C@H]23)cs1.[Na+] | 0.03 |
| Nc1nc(/C(=N\OCCF)C(=O)N[C@@H]2C(=O)N3C(C(=O)[O-])=C(Sc4nc5cccnc5s4)CC[C@H]23)cs1.[Na+] | 0.03 |
| Nc1nc(/C(=N\OCCF)C(=O)N[C@@H]2C(=O)N3C(C(=O)[O-])=C(Sc4nc5ccccc5s4)CC[C@H]23)cs1.[Na+] | 0.03 |
| Nc1nc(/C(=N\OCCF)C(=O)N[C@@H]2C(=O)N3C(C(=O)[O-])=C(Sc4nc5ccccc5[nH]4)CC[C@H]23)cs1.[Na+] | 0.015 |
| Nc1nc(/C(=N\OCCF)C(=O)N[C@@H]2C(=O)N3C(C(=O)[O-])=C(Sc4ccccc4)CC[C@H]23)cs1.[Na+] | 0.03 |

Tested on: Pseudomonas aeruginosa
Test: Antimicrobial activity against Pseudomonas PS18 strain
Type: functional

| SMILES | MIC [µg/mL] |
| --- | --- |
| Nc1nc(/C(=N\OCCF)C(=O)N[C@@H]2C(=O)N3C(C(=O)[O-])=C(Sc4nc(-c5cccnc5)cs4)CC[C@H]23)cs1.[Na+] | 64 |
| Nc1nc(/C(=N\OCCF)C(=O)N[C@@H]2C(=O)N3C(C(=O)[O-])=C(Sc4nc5cccnc5s4)CC[C@H]23)cs1.[Na+] | 64 |
| Nc1nc(/C(=N\OCCF)C(=O)N[C@@H]2C(=O)N3C(C(=O)[O-])=C(Sc4nc5ccccc5s4)CC[C@H]23)cs1.[Na+] | 128 |
| Nc1nc(/C(=N\OCCF)C(=O)N[C@@H]2C(=O)N3C(C(=O)[O-])=C(Sc4nc5ccccc5[nH]4)CC[C@H]23)cs1.[Na+] | 32 |
| Nc1nc(/C(=N\OCCF)C(=O)N[C@@H]2C(=O)N3C(C(=O)[O-])=C(Sc4ccccc4)CC[C@H]23)cs1.[Na+] | 64 |

Molecular target: not listed separately
Test: Tested against penicillin binding protein 2a (PBP2a) enzyme.

| SMILES | IC50 [µg/mL] |
| --- | --- |
| Nc1nc(/C(=N\OCCF)C(=O)N[C@@H]2C(=O)N3C(C(=O)[O-])=C(Sc4nc5ccccc5s4)CC[C@H]23)cs1.[Na+] | 3.5 |

Tested on: Streptococcus pneumoniae
Test: In vitro antimicrobial activity against Streptococcus pneumoniae PARK strain
Type: functional

| SMILES | MIC [µg/mL] |
| --- | --- |
| Nc1nc(/C(=N\OCCF)C(=O)N[C@@H]2C(=O)N3C(C(=O)[O-])=C(Sc4nc(-c5cccnc5)cs4)CC[C@H]23)cs1.[Na+] | < 0.008 |
| Nc1nc(/C(=N\OCCF)C(=O)N[C@@H]2C(=O)N3C(C(=O)[O-])=C(Sc4nc5cccnc5s4)CC[C@H]23)cs1.[Na+] | < 0.008 |
| Nc1nc(/C(=N\OCCF)C(=O)N[C@@H]2C(=O)N3C(C(=O)[O-])=C(Sc4nc5ccccc5s4)CC[C@H]23)cs1.[Na+] | < 0.008 |
| Nc1nc(/C(=N\OCCF)C(=O)N[C@@H]2C(=O)N3C(C(=O)[O-])=C(Sc4nc5ccccc5[nH]4)CC[C@H]23)cs1.[Na+] | < 0.008 |
| Nc1nc(/C(=N\OCCF)C(=O)N[C@@H]2C(=O)N3C(C(=O)[O-])=C(Sc4ccccc4)CC[C@H]23)cs1.[Na+] | 0.015 |

Tested on: Staphylococcus aureus
Test: Minimum inhibitory concentration against methicillin-resistant Staphylococcus aureus 430 (MRSA) in vitro using trypticase soy broth (TSB) with 4% NaCl
Type: functional

| SMILES | MIC [µg/mL] |
| --- | --- |
| Nc1nc(/C(=N\OCCF)C(=O)N[C@@H]2C(=O)N3C(C(=O)[O-])=C(Sc4nc5ccccc5s4)CC[C@H]23)cs1.[Na+] | 1 |

Tested on: Pseudomonas aeruginosa
Test: In vitro antimicrobial activity against Pseudomonas X239 strain
Type: functional

| SMILES | MIC [µg/mL] |
| --- | --- |
| Nc1nc(/C(=N\OCCF)C(=O)N[C@@H]2C(=O)N3C(C(=O)[O-])=C(Sc4nc(-c5cccnc5)cs4)CC[C@H]23)cs1.[Na+] | > 128 |
| Nc1nc(/C(=N\OCCF)C(=O)N[C@@H]2C(=O)N3C(C(=O)[O-])=C(Sc4nc5cccnc5s4)CC[C@H]23)cs1.[Na+] | > 128 |
| Nc1nc(/C(=N\OCCF)C(=O)N[C@@H]2C(=O)N3C(C(=O)[O-])=C(Sc4nc5ccccc5s4)CC[C@H]23)cs1.[Na+] | 16 |
| Nc1nc(/C(=N\OCCF)C(=O)N[C@@H]2C(=O)N3C(C(=O)[O-])=C(Sc4nc5ccccc5[nH]4)CC[C@H]23)cs1.[Na+] | 32 |
| Nc1nc(/C(=N\OCCF)C(=O)N[C@@H]2C(=O)N3C(C(=O)[O-])=C(Sc4ccccc4)CC[C@H]23)cs1.[Na+] | 128 |

Tested on: Staphylococcus aureus
Test: In vitro antimicrobial activity against Staphylococcus aureus X1.1 strain
Type: functional

| SMILES | MIC [µg/mL] |
| --- | --- |
| Nc1nc(/C(=N\OCCF)C(=O)N[C@@H]2C(=O)N3C(C(=O)[O-])=C(Sc4nc(-c5cccnc5)cs4)CC[C@H]23)cs1.[Na+] | 0.25 |
| Nc1nc(/C(=N\OCCF)C(=O)N[C@@H]2C(=O)N3C(C(=O)[O-])=C(Sc4nc5cccnc5s4)CC[C@H]23)cs1.[Na+] | 0.25 |
| Nc1nc(/C(=N\OCCF)C(=O)N[C@@H]2C(=O)N3C(C(=O)[O-])=C(Sc4nc5ccccc5s4)CC[C@H]23)cs1.[Na+] | 0.125 |
| Nc1nc(/C(=N\OCCF)C(=O)N[C@@H]2C(=O)N3C(C(=O)[O-])=C(Sc4nc5ccccc5[nH]4)CC[C@H]23)cs1.[Na+] | 2 |
| Nc1nc(/C(=N\OCCF)C(=O)N[C@@H]2C(=O)N3C(C(=O)[O-])=C(Sc4ccccc4)CC[C@H]23)cs1.[Na+] | 0.5 |

Tested on: Enterobacter cloacae
Test: In vitro evaluation of antimicrobial activity against Enterobacter cloacae EB5 strain
Type: functional

| SMILES | MIC [µg/mL] |
| --- | --- |
| Nc1nc(/C(=N\OCCF)C(=O)N[C@@H]2C(=O)N3C(C(=O)[O-])=C(Sc4nc(-c5cccnc5)cs4)CC[C@H]23)cs1.[Na+] | 2 |
| Nc1nc(/C(=N\OCCF)C(=O)N[C@@H]2C(=O)N3C(C(=O)[O-])=C(Sc4nc5cccnc5s4)CC[C@H]23)cs1.[Na+] | 2 |
| Nc1nc(/C(=N\OCCF)C(=O)N[C@@H]2C(=O)N3C(C(=O)[O-])=C(Sc4nc5ccccc5s4)CC[C@H]23)cs1.[Na+] | 1 |
| Nc1nc(/C(=N\OCCF)C(=O)N[C@@H]2C(=O)N3C(C(=O)[O-])=C(Sc4nc5ccccc5[nH]4)CC[C@H]23)cs1.[Na+] | 1 |
| Nc1nc(/C(=N\OCCF)C(=O)N[C@@H]2C(=O)N3C(C(=O)[O-])=C(Sc4ccccc4)CC[C@H]23)cs1.[Na+] | 4 |

Tested on: Haemophilus influenzae
Test: In vitro antimicrobial activity against Haemophilus influenzae C.L. strain
Type: functional

| SMILES | MIC [µg/mL] |
| --- | --- |
| Nc1nc(/C(=N\OCCF)C(=O)N[C@@H]2C(=O)N3C(C(=O)[O-])=C(Sc4nc(-c5cccnc5)cs4)CC[C@H]23)cs1.[Na+] | 0.015 |
| Nc1nc(/C(=N\OCCF)C(=O)N[C@@H]2C(=O)N3C(C(=O)[O-])=C(Sc4nc5cccnc5s4)CC[C@H]23)cs1.[Na+] | 0.03 |
| Nc1nc(/C(=N\OCCF)C(=O)N[C@@H]2C(=O)N3C(C(=O)[O-])=C(Sc4nc5ccccc5s4)CC[C@H]23)cs1.[Na+] | 0.03 |
| Nc1nc(/C(=N\OCCF)C(=O)N[C@@H]2C(=O)N3C(C(=O)[O-])=C(Sc4nc5ccccc5[nH]4)CC[C@H]23)cs1.[Na+] | 0.015 |
| Nc1nc(/C(=N\OCCF)C(=O)N[C@@H]2C(=O)N3C(C(=O)[O-])=C(Sc4ccccc4)CC[C@H]23)cs1.[Na+] | 0.03 |

Tested on: Staphylococcus epidermidis
Test: In vitro antimicrobial activity against Staphylococcus epidermidis 270 strain
Type: functional

| SMILES | MIC [µg/mL] |
| --- | --- |
| Nc1nc(/C(=N\OCCF)C(=O)N[C@@H]2C(=O)N3C(C(=O)[O-])=C(Sc4nc(-c5cccnc5)cs4)CC[C@H]23)cs1.[Na+] | 2 |
| Nc1nc(/C(=N\OCCF)C(=O)N[C@@H]2C(=O)N3C(C(=O)[O-])=C(Sc4nc5cccnc5s4)CC[C@H]23)cs1.[Na+] | 4 |
| Nc1nc(/C(=N\OCCF)C(=O)N[C@@H]2C(=O)N3C(C(=O)[O-])=C(Sc4nc5ccccc5s4)CC[C@H]23)cs1.[Na+] | 0.5 |
| Nc1nc(/C(=N\OCCF)C(=O)N[C@@H]2C(=O)N3C(C(=O)[O-])=C(Sc4nc5ccccc5[nH]4)CC[C@H]23)cs1.[Na+] | 8 |
| Nc1nc(/C(=N\OCCF)C(=O)N[C@@H]2C(=O)N3C(C(=O)[O-])=C(Sc4ccccc4)CC[C@H]23)cs1.[Na+] | 2 |

Tested on: Escherichia coli
Test: In vitro evaluation of antimicrobial activity against Escherichia coli EC14 strain
Type: functional

| SMILES | MIC [µg/mL] |
| --- | --- |
| Nc1nc(/C(=N\OCCF)C(=O)N[C@@H]2C(=O)N3C(C(=O)[O-])=C(Sc4nc(-c5cccnc5)cs4)CC[C@H]23)cs1.[Na+] | 0.25 |
| Nc1nc(/C(=N\OCCF)C(=O)N[C@@H]2C(=O)N3C(C(=O)[O-])=C(Sc4nc5cccnc5s4)CC[C@H]23)cs1.[Na+] | 0.25 |
| Nc1nc(/C(=N\OCCF)C(=O)N[C@@H]2C(=O)N3C(C(=O)[O-])=C(Sc4nc5ccccc5s4)CC[C@H]23)cs1.[Na+] | 0.25 |
| Nc1nc(/C(=N\OCCF)C(=O)N[C@@H]2C(=O)N3C(C(=O)[O-])=C(Sc4nc5ccccc5[nH]4)CC[C@H]23)cs1.[Na+] | 0.125 |
| Nc1nc(/C(=N\OCCF)C(=O)N[C@@H]2C(=O)N3C(C(=O)[O-])=C(Sc4ccccc4)CC[C@H]23)cs1.[Na+] | 0.5 |

Tested on: Staphylococcus aureus
Test: In vitro antimicrobial activity against Staphylococcus aureus S13E strain
Type: functional

| SMILES | MIC [µg/mL] |
| --- | --- |
| Nc1nc(/C(=N\OCCF)C(=O)N[C@@H]2C(=O)N3C(C(=O)[O-])=C(Sc4nc(-c5cccnc5)cs4)CC[C@H]23)cs1.[Na+] | 8 |
| Nc1nc(/C(=N\OCCF)C(=O)N[C@@H]2C(=O)N3C(C(=O)[O-])=C(Sc4nc5cccnc5s4)CC[C@H]23)cs1.[Na+] | 8 |
| Nc1nc(/C(=N\OCCF)C(=O)N[C@@H]2C(=O)N3C(C(=O)[O-])=C(Sc4nc5ccccc5s4)CC[C@H]23)cs1.[Na+] | 4 |
| Nc1nc(/C(=N\OCCF)C(=O)N[C@@H]2C(=O)N3C(C(=O)[O-])=C(Sc4nc5ccccc5[nH]4)CC[C@H]23)cs1.[Na+] | 16 |
| Nc1nc(/C(=N\OCCF)C(=O)N[C@@H]2C(=O)N3C(C(=O)[O-])=C(Sc4ccccc4)CC[C@H]23)cs1.[Na+] | 64 |

Tested on: Staphylococcus epidermidis
Test: In vitro antimicrobial activity against Staphylococcus epidermidis 222 strain
Type: functional

| SMILES | MIC [µg/mL] |
| --- | --- |
| Nc1nc(/C(=N\OCCF)C(=O)N[C@@H]2C(=O)N3C(C(=O)[O-])=C(Sc4nc(-c5cccnc5)cs4)CC[C@H]23)cs1.[Na+] | 0.5 |
| Nc1nc(/C(=N\OCCF)C(=O)N[C@@H]2C(=O)N3C(C(=O)[O-])=C(Sc4nc5cccnc5s4)CC[C@H]23)cs1.[Na+] | 1 |
| Nc1nc(/C(=N\OCCF)C(=O)N[C@@H]2C(=O)N3C(C(=O)[O-])=C(Sc4nc5ccccc5s4)CC[C@H]23)cs1.[Na+] | 0.25 |
| Nc1nc(/C(=N\OCCF)C(=O)N[C@@H]2C(=O)N3C(C(=O)[O-])=C(Sc4nc5ccccc5[nH]4)CC[C@H]23)cs1.[Na+] | 2 |
| Nc1nc(/C(=N\OCCF)C(=O)N[C@@H]2C(=O)N3C(C(=O)[O-])=C(Sc4ccccc4)CC[C@H]23)cs1.[Na+] | 2 |

Tested on: Staphylococcus aureus
Test: Minimum inhibitory concentration against methicillin-resistant Staphylococcus aureus 430 (MRSA) in vitro using trypticase soy broth (TSB)
Type: functional

| SMILES | MIC [µg/mL] |
| --- | --- |
| Nc1nc(/C(=N\OCCF)C(=O)N[C@@H]2C(=O)N3C(C(=O)[O-])=C(Sc4nc5ccccc5s4)CC[C@H]23)cs1.[Na+] | 0.5 |
